# Experimental data published in article PMC13267291, “In vivo functional profiling and structural characterization of the human GLP1R A316T variant” (Science Advances, 2026).
# What was measured:
# [1] = test system: SNAP/FLAG-hGLP1R^A316T versus ^WT; assay: GLP-1R ubiquitination assay; type: cell-based, rat; conditions: 100 nM, 10 min; n = 5; Fig. 8K
# Description: INS-1 832/3 Glp1r-/- SNAP/FLAG-hGLP1RWT or A316T cells plated onto 6- cm dishes were stimulated ± 100 nM exendin-4 for 10 min, washed with PBS and osmotically lysed in lysis buffer (50 mM tris-HCl, pH 7.4, 150 mM NaCl, 1% Triton X-100, 1 mM EDTA) with 1% protease inhibitor (Roche) and 1% phosphatase inhibitor cocktail (Sigma-Aldrich) at 4°C. Cell lysates were centrifuged at 12,000 g and 4°C for 10 min prior to the addition of 40 μL anti- FLAG M2 beads (A2220, Sigma-Aldrich) and overnight rotating incubation at 4°C to increase FLAG-tag binding efficiency. Samples were then centrifuged at 5,000 g for 30 s, bead pellets washed 3x in 500 μL wash buffer (50 mM Tris-HCl, 150 mM NaCl, pH 7.4), and proteins eluted with 2x urea buffer at 37°C for 10 min before Western blot analysis with anti-ubiquitin antibody (1:1,000; sc-8017, Santa Cruz Biotechnology) and sheep anti-mouse HRP secondary (1:5,000; ab6808, Abcam) followed by stripping and reblotting with anti-SNAP antibody as above to assess immunoprecipitated receptor per sample. GLP-1R ubiquitination was calculated from ubiquitin over SNAP band intensity levels under the different conditions tested using Fiji.
# LC- MS/MS G LP-1R interactome analysis
# INS-1 832/3 Glp1r-/- SNAP/FLAG-hGLP1RWT or A316T cells were plated onto 6-cm dishes and stimulated with vehicle or 100 nM GLP-1RA for 5 min as previously described (63). […]
# [2] = test system: SNAP/FLAG-hGLP1R^A316T versus ^WT; assay: Insulin secretion in EndoC-βH3 GLP1R^-/--enriched cells; type: cell-based, human; conditions: 15 mM glucose + 100 nM, 60 min; n = 4; Fig. 6C,D
# Description: Purified mouse islets used for insulin secretion assays were treated in 24-well nonadherent plates. Eight islets were used per replicate with three technical replicates per condition. For acute studies, islets were preincubated for 1 hour in KRBH buffer containing 0.1% (w/v) bovine serum albumin (BSA) (10775835001, Roche) and 3 mM glucose before incubation with 11 mM glucose ± 100 nM GLP-1RAs or the GLP-1R antagonist exendin-9 in KRBH buffer in a shaking 37°C water bath (80 rpm) for 1 hour. For overnight studies, preincubation was carried out in RPMI 1640 medium containing FBS, P/S, and 3 mM glucose, followed by treatment with medium supplemented with 11 mM glucose ± GLP-1RAs for 16 hours. […] Insulin secretion assays with the human EndoC-βH3 cell line were performed following 3 weeks of treatment with 4-hydroxytamoxifen as above, followed by transduction with pAV-SNAP/FLAG-hGLP1R^WT or ^A316T adenoviruses, with insulin secretion assessed as previously described ([54]), with the following modifications: After preincubation with 0.5 mM glucose KRBH buffer, cells were stimulated with 15 mM glucose ± exendin-4 for 60 min. Total and secreted insulin samples from islets and cells were stored at −20°C until quantification using an Insulin Ultra-Sensitive HTRF kit (#62IN2PEG, Revvity) in a PHERAstar plate reader (BMG Labtech), according to the manufacturer’s instructions.
# [3] = test system: hGLP1R^A316T/A316T versus hGLP1R^+/+ mice; assay: Plasma insulin 10 min into IPGTT, chow-fed mice; type: in vivo, mouse; conditions: chow diet
# Description: To measure insulin release during IPGTTs, 10 μl of blood samples were collected via tail venipuncture 10 min after a glucose challenge.
# Plasma was collected into potassium EDTA cuvettes (Microvette CB 300, 16.444.100, Starstedt) and stored on ice before centrifugation at 8,000g for 10 min at 4°C to collect plasma supernatants in fresh Eppendorf tubes kept at −80°C until further analysis.
substance,measurement,setting,value
exendin-4,Effect of agonist stimulation on WT GLP-1R ubiquitination level,[1],did not affect
same,Effect of agonist stimulation on ubiquitination of the A316T receptor,[1],significantly increased
same,"Agonist-stimulated insulin secretory fold increases, A316T versus WT",[2],significantly reduced
same,"Plasma insulin increase in response to agonist, hGLP1R^A316T/A316T mice","[3]; 10 min into IPGTT, relative to effect in hGLP1R^+/+, Fig. 1L,M",attenuated
same,"Plasma insulin levels in response to agonist, hGLP1R^+/+ mice","[3]; 10 min into IPGTT, versus vehicle, Fig. 1L,M",increased
same,"Agonist-dependent plasma insulin rises (vehicle fold changes), A316T/A316T versus +/+","[3]; significant at the 6-hour time point, Fig. 1N",reduced
